From BigSolDB 2.1

Cc1c(C(=O)O)cc([N+](=O)[O-])cc1[N+](=O)[O-]
solubility (mole fraction)
Conditions | 288.15 K | 293.15 K | 298.15 K | 303.15 K | 308.15 K | 313.15 K | 318.15 K | 323.15 K | 328.15 K | 333.15 K
in acetonitrile | 0.0071 | 0.0084 | 0.00994 | 0.012 | 0.0145 | 0.0176 | 0.0209 | 0.0248 | 0.0292 | 0.0341
in cyclohexane | 1.4e-05 | 1.96e-05 | 2.69e-05 | 3.64e-05 | 4.87e-05 | 6.37e-05 | 8.12e-05 | 0.000103 | 0.000131 | 0.000166
in ethanol | 0.0467 | 0.0526 | 0.0604 | 0.0695 | 0.0783 | 0.0882 | 0.099 | 0.11 | 0.123 | 0.134
in ethyl acetate | 0.0237 | 0.0271 | 0.0312 | 0.0359 | 0.041 | 0.0467 | 0.0536 | 0.0611 | 0.0694 | 0.0781
in isopropanol | 0.0102 | 0.0121 | 0.0147 | 0.017 | 0.0202 | 0.0232 | 0.0276 | 0.0327 | 0.0384 | 0.0442
in n-butanol | 0.0109 | 0.0129 | 0.0152 | 0.0179 | 0.0209 | 0.0243 | 0.0284 | 0.034 | 0.0393 | 0.0457
in n-heptanol | 0.0128 | 0.0146 | 0.017 | 0.0208 | 0.025 | 0.0295 | 0.0341 | 0.0396 | 0.0458 | 0.0524
in n-hexanol | 0.00982 | 0.0114 | 0.0131 | 0.0151 | 0.0177 | 0.0208 | 0.0244 | 0.0288 | 0.0338 | 0.0394
in n-pentanol | 0.012 | 0.0138 | 0.0165 | 0.0193 | 0.0226 | 0.026 | 0.0303 | 0.0356 | 0.0414 | 0.0478
in n-propanol | 0.0126 | 0.0146 | 0.0169 | 0.0202 | 0.0239 | 0.0278 | 0.0326 | 0.0381 | 0.0442 | 0.0505
in sec-butanol | 0.0114 | 0.0134 | 0.0158 | 0.0187 | 0.0219 | 0.0257 | 0.03 | 0.0349 | 0.0405 | 0.0467
in toluene | 0.0174 | 0.0207 | 0.0242 | 0.0284 | 0.0328 | 0.0377 | 0.0434 | 0.0493 | 0.0558 | 0.0628
in water | 1.67e-05 | 2.35e-05 | 3.5e-05 | 4.55e-05 | 5.87e-05 | 7.99e-05 | 0.000108 | 0.000137 | 0.000171 | 0.000218
